Key:
Assay type in all cases: physicochemical
[1] = Differential scanning calorimetry (transition point, heat resistance); settings: DSC endothermic peak indicating phase transition; powder in aluminum pan heated up to 550° C.
Experimental: In the following examples, reactions and measurements in an inert gas atmosphere were conducted with use of a solvent obtained by anhydrous distillation, and other reactions and operations were conducted with use of commercial Grade 1 or Special Grade solvents. The reagents were purified, as required, by anhydrous distillation or the like, and otherwise commercially available Grade 1 or Special Grade reagents were employed. In the examples, following analytical instrument and measurement instrument were employed. The nuclear magnetic resonance spectroscopy was conducted by means of LAMBDA-NMR (395.75 MHz, σ value, ppm, internal standard TMS). The differential scanning calorimetry was conducted by means of a differential scanning calorimeter METTLER-TOLED DSC1.
About 2 mg of each organic compound powder was weighed out and fed hermetically in an aluminum pan. Each sample was set on a differential scanning calorimeter and heated up to 550° C.

[2] = Measurement of solubility in organic solvents at 25° C.; settings: for Solubility in organic solvent at 25° C., chloroform / Solubility in organic solvent at 25° C., THN / Solubility in organic solvent at 25° C., toluene: visual inspection; for Solubility in organic solvent at 25° C., THN: tetrahydronaphthalene (THN)
Experimental: (§1) About 1 mg of each organic compound powder was weighed and fed into vials, and the weight of the content in each vial was measured precisely. Into these vials, chloroform, toluene, and tetrahydronaphthalene (THN) were added at 25° C. (room temperature). When the added solvent dissolved completely, the mass was measured precisely again. The mass of the organic compound was divided by the total weight of the organic compound and the added solvent, and was multiplied by 100 to obtain solubility. Dissolution or non-dissolution was judged by visual inspection.

[3] = Storage stability in a solution state (solution state after one week); settings: solutions of the solubility test
Source text: The organic compound represented by Formula (A) is required to be soluble in an organic solvent. The organic solvent is not particularly limited as far as being capable of dissolving the organic compound represented by Formula (A). Considering environmental problems and other conditions, the organic solvent is preferably and practically a non-halogenated solvent. Further, considering the stability of a solution obtained by dissolving the organic compound represented by Formula (A) in the organic solvent, the organic compound represented by Formula (A) needs to have reasonably high solubility at room temperature. In the organic solvent, the solubility of the organic compound represented by Formula (A) at 25° C. is usually 0.1 mass % or higher, preferably 0.3 mass % or higher, more preferably 0.5 mass % or higher, and further preferably 0.7 mass % or higher. In chloroform, the solubility of the organic compound represented by Formula (A) at 25° C. is usually 0.1 mass % or higher, preferably 0.3 mass % or higher, more preferably 0.5 mass % or higher, and further preferably 0.7 mass % or higher. In toluene, the solubility of the organic compound represented by Formula (A) at 25° C. is usually 0.1 mass % or higher, preferably 0.3 mass % or higher, more preferably 0.5 mass % or higher, and further preferably 0.7 mass % or higher. In tetrahydronaphthalene, the solubility of the organic compound represented by Formula (A) at 25° C. is usually 0.1 mass % or higher, preferably 0.3 mass % or higher, more preferably 0.5 mass % or higher, and further preferably 0.7 mass % or higher.
as §1

Compound | Peak top temperature [1] [°C] | Solubility in the organic solvent at 25° C. relative to the organic compound in Comparative example 2 ([2]; at the maximum, versus Comparative example 2) [times] | Solubility compared with the organic compound in Comparative example 1 ([2]; organic solvent, 25° C., versus Comparative example 1) | Solution state after one week [3] | Solubility in organic solvent at 25° C., chloroform ([2]; 25° C.) [mass %] | Solubility in organic solvent at 25° C., THN ([2]; 25° C.) [mass %] | Solubility in organic solvent at 25° C., toluene ([2]; 25° C.) [mass %]
CCCCCCCCCCc1ccc2c(c1)sc1c3ccc(-c4ccccc4)cc3sc21 [Comp. Ex. 3, reference compound] | ≤ 150 |  |  |  |  |  | 
CCCCCCc1ccc2cc3sc4c5cc(-c6ccccc6)ccc5sc4c3cc2c1 [Organic compound 1] |  | ≥ 10 | higher solubility |  |  |  | 
CCCCc1ccc2sc3c4cc5cc(-c6ccccc6)ccc5cc4sc3c2c1 [Organic compound 4] | 218 |  |  | no precipitation | 0.5 | 0.5 | 0.5
CCCCCCCCc1ccc2sc3c4cc5cc(-c6ccccc6)ccc5cc4sc3c2c1 [Organic compound 5] | 186 |  |  | no precipitation | 0.4 | 0.4 | 0.4
CCCCCCCCCCc1ccc2cc3sc4c5cc(-c6ccccc6)ccc5sc4c3cc2c1 [Organic compound 6] | 185 |  |  | no precipitation | 0.3 | 0.3 | 0.2
CCCCCCc1ccc2cc3sc4c5cc(-c6ccc(CC)cc6)ccc5sc4c3cc2c1 [Organic compound 8] | 229 |  |  | no precipitation | >2 | 1.4 | 0.9
CCCCCc1ccc(-c2ccc3sc4c5cc6cc(-c7ccccc7)ccc6cc5sc4c3c2)cc1 [Organic compound 9] | 244 |  |  |  |  |  | 

Reference: patent US20180062087A1, “Organic Compound, Organic Semiconductor Material, Organic Thin Film And Method For Producing The Same, Organic Semiconductor Composition, And Organic Semiconductor Device” (Nippon Kayaku Kabushiki Kaisha, priority 2015, published 2018)
